Results published in patent US20100069319A1, “Mercaptopurine derivatives and uses thereof” (priority 2007, published 2010).

Assays:
Daudi cells = assay: [3H] thymidine incorporation into DNA (cell proliferation); assay type: cell-based; conditions: 16 h
Experimental: (§1) The effects of 6-MP derivatives on DNA synthesis were assessed by [Methyl-^3H] thymidine incorporation into DNA. All the experiments performed with cells were carried out at least in triplicates. Adhesive cells (N87, Hela HtTA-1 and MDR HT-29) were seeded at 10,000 cells/well (96-well plate) or 60,000 cells/well (24-well plate). Cells in suspension (B-CLL, Daudi, HL-60, Jurkat, MOLT4 and U937cells) were seeded at 15,000 cells/well (96-wells plate) or 100,000 cells/well (24-wells plate). Adhesive cells were grown at 37° C. for 6 h after seeding, before treatment. For the assessment of [Methyl-^3H] thymidine incorporation, cells were treated with various concentrations of 6-MP derivatives at 37° C. for 16 h in the presence of [Methyl-^3H] thymidine (0.8-1.0 μCi/well). Then, plates were frozen (−20° C., 1 h). Adhesive cells were trypsinized before harvesting. Cells in suspension were directly harvested after thawing out the frozen cells.
(§2) The antiproliferative effect of 6-MP and SA-6MP on various cell lines was assessed by determining [^3H] thymidine incorporation into the DNA. 6-MP and SA-6MP at 0-200 μM were applied to Daudi, Hela and N87 cells cultured in 96-well plates in the presence of [^3H] thymidine, as described in Materials and Methods. […] As further shown, the sensitivity to the prodrug is cell type dependent.

Hela cells [1] = assay: as above; assay type: cell-based, human; conditions: 16 h
Experimental: as §1, §2

N87 cells [2] = assay: as above; assay type: cell-based, human; conditions: 16 h
Experimental: as §1, §2

B-CLL cells = assay: Cell death by trypan blue dye exclusion / PI; assay type: cell-based, human; conditions: 16 h
Experimental: (§3) Cell death was monitored by trypan blue dye exclusion test or propidium iodide (PI) incorporation. Treated cells were incubated with PI (2 μg/ml) for 20 min at 37° C., washed with HBS and examined by fluorescence microscopy or analyzed by flow cytometry using fluorescence-activated cell sorting (Becton Dickinson FACScan Instrument using CellQuest software (BD Bioscience, San Jose, Calif.). Monolayer cells were trypsinized and washed with HBS before FACS analysis.
(§4) In parallel, the trypan blue dye exclusion test was used to assess cell death. In particular, different concentrations of 6MP and SA-6MP were applied to various cell cultures (Daudi and Hela cells, each at 30,000 cells/well) as described in Materials and Methods. The cells were stained with trypan blue to monitor the lethal effect of several concentrations of the tested conjugates as the percentage of dead cells. As shown in FIG. 3A-3D, cell death induced by 6-MP and SA-6MP was both concentration and cell type dependent. […] SA-6MP at concentrations higher than 150 μM reduced the residual viability to 75% (FIG. 3D).

Hela cells [3] = assay: Cell death by trypan blue dye exclusion / PI; assay type: cell-based, human; conditions: 16 h; for sensitivity to treatment (cell death, words): 100 μM
Experimental: as §3, §4

MDR HT-29 cells = assay: Cell death by trypan blue dye exclusion / PI; assay type: cell-based, human; conditions: 16 h; for sensitivity to treatment (cell death, words): MDR HT-29, 100 μM
Experimental: as §3, §4

N87 cells [4] = assay: XTT cell proliferation assay; assay type: cell-based, human; conditions: 16 h
Experimental: (§5) Cell proliferation was determined by the XTT viability assay in 96-well plates, based on the reduction of tetrazolium salt to soluble formazan compounds by living cells. Cells (10,000-15,000 cells/well) were seeded in a 96-well plate. After 16 h incubation with various concentrations of 6-MP, 6-MPR and their S-allylthio-derivatives, 50 μl of XTT/PMS mixture (50 μM PMS, 0.1% XTT in medium) was added onto the cells. After an incubation period of 3-4 h at 37° C. the absorbance of the samples was measured in an ELISA Reader at 450 nm. SDS (1%, 10 μl/well) was added to reference wells before adding the XTT/PMS solution.
The inhibitory effects of the various prodrugs on Daudi leukemia cell and on monolayer N87 cells were compared. […] XTT was added to the wells for 3 h at 37° C. Cell viability was monitored using an ELISA reader at 450 nm, as described in Materials and Methods.

Hela = assay: Anti-proliferative concentration IC50 (Table 2); assay type: cell-based, human; conditions: Homo sapiens, 16 h, tested at 0-200 μM, read-out: Anti-proferative concentration - IC50 (mean ± SE)
Experimental: as §5
(§6) The results of viability and proliferation were expressed as mean values±SD (n=3-6). For each cell line, the results were analyzed using two-way analysis of variance (ANOVA) followed by Bonferroni's posttest for the factors of the drugs used and their various concentrations, considering p<0.05 as significant. IC50 values (mean±SEM) were obtained from the linear range of the viability curve versus drug concentration (XTT assay).
(§7) In particular, cell in suspension, namely, Daudi, HL-60, U937, Molt-4, Jurkat and B-CLL, were tested at prodrug concentration of 0-100 μM, and monolayer cells, namely, Hela HtTA-1, MDR HT-29 and N87, were tested at prodrug concentration of 0-200 μM. in both cases, cell viability was determined by trypan blue dye exclusion assay. Data are presented in Table 2 hereinbelow for 6MP derivatives-treated for 16 h.

Jurkat = assay: Anti-proliferative concentration IC50 (Table 2); assay type: cell-based, human; conditions: Homo sapiens, 16 h, tested at 0-100 μM, read-out: Anti-proferative concentration - IC50 (mean ± SE)
Experimental: as §5, §6, §7

MDR HT-29 = assay: Anti-proliferative concentration IC50 (Table 2); assay type: cell-based, human; conditions: Homo sapiens; MDR HT-29, 16 h, tested at 0-200 μM; read-out: Anti-proferative concentration - IC50 (mean ± SE)
Experimental: as §5, §6, §7

U937 = assay: Anti-proliferative concentration IC50 (Table 2); assay type: cell-based, human; conditions: Homo sapiens, U-937; U937, 16 h, tested at 0-100 μM; read-out: Anti-proferative concentration - IC50 (mean ± SE)
Experimental: as §5, §6, §7

[5] = Nonactive 6-MP dimers in the medium of treated cell lines
Excerpt: The fact that only a fraction of the thiopurine molecules occurs in its active form explains the need for a high prodrug concentration. The allylthio moiety of the new derivative protects the free SH from such oxidation. Only later, upon entry to the cellular reducing environment is the mixed disulfide SA-6MP cleaved, which renders higher efficiency at lower concentrations. The proposed mechanism for the reaction of SA-6MP with free thiols in the cell is depicted in Scheme 2 hereinafter.

[6] = at the same concentrations (0-200 μM)
[7] = Homo sapiens, [3H] thymidine incorporation, read-out: concentration at which 50% inhibition was observed

SMILES | sensitivity to treatment (cell death, words) (Hela cells [3]) | sensitivity to treatment (cell death, words) (MDR HT-29 cells) | IC50 (Hela) [µM] | IC50 (Jurkat) [µM] | IC50 (MDR HT-29) [µM] | IC50 (U937) [µM] | nonactive 6-MP dimers (purine-S-S-purine) in the medium [5] | other results
Sc1ncnc2nc[nH]c12 [6-MP, 6-Mercaptopurine, reference compound] | almost non-sensitive | almost non-sensitive | > 200 | > 200 | > 200 | > 200 | dimers were indeed found in the medium | inhibition of proliferation (Daudi cells; [6]): no inhibition of proliferation; inhibition of proliferation (Hela cells [1]; [6]): no inhibition of proliferation; inhibition of proliferation (N87 cells [2]; [6]): no inhibition of proliferation; sensitivity to treatment (B-CLL cells; 100-200 μM): almost insensitive; viability at 200 µM (Hela cells [3]; Homo sapiens, 200 μM): 75%; cell proliferation (N87 cells [4]; N87, 0-100 μM): no significant loss of cell proliferation; proliferation (residual) (N87 cells [4]; N87, 150 μM): ~80%
C=CCSSc1ncnc2nc[nH]c12 [SA-6MP, S-allylthio-6-mercaptopurine] | almost non-sensitive | almost non-sensitive | 114 ± 12 | 54.7 ± 6.3 | 126 ± 19.1 | 46.7 ± 4.8 | not in the medium | IC50 (Daudi cells; [7]): ~20 µM; IC50 (Hela cells [1]; [7]): 110 µM; IC50 (N87 cells [2]; [7]): 100 µM; residual viability (B-CLL cells; concentrations higher than 150 μM): 75%; viability at 150 µM (Hela cells [3]; Homo sapiens, 150 μM, read-out: viability compared to non-treated cells): 65%; viability at 150 µM (MDR HT-29 cells; Homo sapiens, MDR HT-29, 150 μM, read-out: viability compared to non-treated cells): 40%; viability at 50 µM (N87 cells [4]; Homo sapiens, N87, 50 μM, read-out: residual proliferation / viability): 50 to 60%
